Results published in US5288723A, “A composition and a method of using veratridine and epinephrine as a local anesthetic” (priority 1991, dated 1994).
“Also recorded” adds a separate entry of the source.

Key:
rat sciatic nerve [1] = assay: Sensory block of rat sciatic nerve in vivo (nocifensive withdrawal reflex to pinch of the foot pad); design: species or system Male Sprague-Dawley rats; settings: 2%=74 mM
rat sciatic nerve [2] = assay: Motor block of rat sciatic nerve in vivo (toe curling and/or foot dragging); design: species or system Male Sprague-Dawley rats
[3] = Toxic signs (salivation) in rats after sciatic nerve injection; assay type: in vivo, Male Sprague-Dawley rats; settings: co-injection of VTD with EPI
Description: Male Sprague-Dawley rats (200-250 g) were divided into 4 groups of 10 each. 0.1 ml of VTD alone at 0.2, 0.5 or 0.7 mM or vehicle (saline) was injected at the depression between the femoral head and the hip. The same animals were injected with VTD with epinephrine (EPI, 1:200,000) one week later, using the previously uninjected leg. Motor and sensory functions were rated by the respective monitoring of toe curling and/or foot dragging, and by testing the nocifensive withdrawal reflex to pinch of the foot pad of the injected hindlimb. Saline alone affected neither function.

## CCN(CC)CC(=O)Nc1c(C)cccc1C [lidocaine]
Rat sciatic nerve [1]
  Sensory blockade duration: 78 min
  Sensory blockade onset: 1.3 min
  Sensory blockade, % of rats: 100%
  Sensory blockade, fraction of rats: 5/5
Rat sciatic nerve [2]; 2%=74 mM
  Motor blockade duration: 75 min
  Motor blockade onset: 1.9 min
  Motor blockade, % of rats: 96%
  Motor blockade, fraction of rats: 216/224

## CCCCN1CCCCC1C(=O)Nc1c(C)cccc1C (stereo not shown) [bupivacaine]
Rat sciatic nerve [2]; 0.75%=23 mM
  Motor blockade duration: 161 min
  Motor blockade onset: 4.8 min
  Motor blockade, % of rats tested: 86%
  Motor blockade, fraction of rats tested: 205/239

## CNC[C@H](O)c1ccc(O)c(O)c1 [EPI, epinephrine]
[3]
  Effect of EPI co-injection on VTD toxicity: decrease VTD-associated toxicity; also recorded: decreases the toxicity associated with higher concentrations of VTD
